Test results published in article PMC9186373, “Design, synthesis, and biological evaluation of novel carbazole derivatives as potent DNMT1 inhibitors with reasonable PK properties” (Journal of Enzyme Inhibition and Medicinal Chemistry, 2022).

What was measured:
DNMT3B/3L = assay: Methyltransferase enzymatic selectivity profiling, DNMT3B/3L; format: biochemical; details: 1 - selected enzyme inhibition/DNMT1 inhibition; 50 µM
Description: In addition to DNMT1, there are many other methyltransferases that can bind with S-adenosyl-L-methionine (SAM) to facilitate transmethylation reactions[24]^,[25]. To investigate the selectivity of these potent compounds for DNMT1, we then evaluated the inhibitory activities against DNMT1 and other important methyltransferases at the concentration of 50 µM, including DNMT3A/3L, DNMT3B/3L, and other SAM-dependent enzymes[1]^,[2]^,[26], such as EZH2[27], LSD1[28], G9a (histone H3 lysine 9 methyltransferase)[29].
Here, the selectivity of non-nucleoside DNMT1 inhibitors is somewhat predictable because other methyltransferases mentioned above catalyse different substrates and share very low homology with DNMT1, even in their catalytic domain[30–32]. Subsequently, the screened compounds were evaluated in a dose-dependent assay against HCT116 (human colon cancer cell line) and A549 (human lung carcinoma cell line).
493 Relative selectivity index
494 Relative selectivity index of DNMT1 is calculated by formula: DNMT1-selectivity
495 index =1 - selected enzyme inhibition/DNMT1 inhibition. The closer
496 that this value is to 1 or even more than 1, the better DNMT1-selectivity the of the
498 Table S1. Relative selectivity index of DNMT1
Cpd. […]

PK study in SD rats = format: in vivo; details: rat, plasma, SD male rats; for AUC(0-t) / Tmax / half-life: mean ± SD (n = 3); for bioavailability: p.o. 10 mg/kg vs i.v. 2 mg/kg, F = (AUC p.o. × Dose i.v.)/(AUC i.v. × Dose p.o.) × 100%
Description: In vivo pharmacokinetic properties of WK-22, WK-23, WK-27, and DC_517 were performed by Medicilon Company, Shanghai, China. SPF-grade SD male rats (8 groups, n = 3 rats per group) with a body weight of 230–260 g were purchased from Shanghai SIPPR-BK LAB Animal Ltd., Shanghai, China, and used for the pharmacokinetic analysis of the tested compounds. All animals were deprived of food overnight after the cannulation surgery. Subsequently, the tested compounds WK-23 and DC_517 were dissolved/suspended in 5% DMSO, 10% Solutol, and 85% water, and the tested compounds WK-22 and WK-27 were dissolved/suspended in 5% DMSO, 40% PEG400, and 55% saline for intravenous administration (i.v.) and oral administration (p.o.), respectively. A final dosage of 2.0 and 10.0 mg/kg rat of the formulated compounds was administered for i.v. and p.o. purposes, respectively, and the blood samples were taken at various time points during a 24 h period. At different time points, blood samples were collected from the femoral vein. The plasma samples were obtained after centrifugation (6800 g, 6 min, 2–8 °C) and stored at −80 °C until the assay. The AUC (area under concentration-time curve) was calculated through the trapezoidal rule with extrapolation to time infinity. The concentration of the compounds in the blood was analysed by LC-MS/MS (Shimadzu liquid chromatographic system and SCIEX Triple Quad 5500+ mass spectrometer, Applied Biosystems, Ontario, Canada). The Tmax, T1/2, and Cmax value was obtained through visual inspection of the plasma concentration-time curve. The Vss value was generated from DAS 3.2.8 software. The F value of WK-23 was calculated with the formula: F = (AUC p.o. × Dose i.v.)/(AUC i.v. × Dose p.o.) × 100%.

| Relative selectivity index of DNMT1 vs DNMT 3B/3L (DNMT3B/3L) | AUC(0-t) (PK study in SD rats; iv, i.v. (2 mg/kg)) [ng·h/mL] | Tmax (PK study in SD rats; iv, i.v. (2 mg/kg)) [h] | half-life (PK study in SD rats; iv, i.v. (2 mg/kg)) [h] | bioavailability (PK study in SD rats; oral) [%] | bioavailability (PK study in SD rats; po) [%] | AUC(0-t) (PK study in SD rats; po, p.o. (10 mg/kg)) [ng·h/mL] | Tmax (PK study in SD rats; po, p.o. (10 mg/kg)) [h] | half-life (PK study in SD rats; po, p.o. (10 mg/kg)) [h] | melting point [°C] | Compound |
| --- | --- | --- | --- | --- | --- | --- | --- | --- | --- | --- |
| 0.03 | 867 ± 15.9 | 0.1 | 12.2 ± 0.8 | 27 | 27 ± 4.6 | 1170 ± 197 | 7.3 ± 1.2 | 8.8 ± 1.3 | 89 to 91 | CC(C)NCC(O)COC(Cn1c2ccc(F)cc2c2cc(F)ccc21)Cn1c2ccc(F)cc2c2cc(F)ccc21 (stereo not drawn) [WK-22, 1-((1,3-Bis(3,6-difluoro-9H-carbazol-9-yl)propan-2-yl)oxy)-3-(isopropylamino)propan-2-ol] |
| 0.02 | 1060 ± 121 | 0.08 | 7.9 ± 1 | – | 37.1 ± 1.7 | 1970 ± 91.1 | 6.7 ± 1.2 | 6.5 ± 0.3 | – | CC(C)NCC(O)COC(Cn1c2ccccc2c2cc(F)ccc21)Cn1c2ccccc2c2cc(F)ccc21 (stereo not drawn) [WK-23, 1-((1,3-bis(3-fluoro-9H-carbazol-9-yl)propan-2-yl)oxy)-3-(isopropylamino)propan-2-ol] |
